Each structure is given as a SMILES string. pIC50: −log10 of the molar value. Where two headings read alike, the source gives them in different places.

In this assay the target is T1, DPP-IV (Homo sapiens, UniProt P27487).
T1 construct: purchased Enzyme Systems Products SPE-01
In words: In vitro assay for dipeptidyl peptidase inhibition. In kind it is biochemical. Conditions: hydrochloride salts, Gly-Pro-4-methoxy B naphthylamide substrate, overnight at 37° C. The procedure: 150 μL of an enzyme-substrate solution was pipetted into microtiter wells of a polystyrene 96-well plate, and maintained at 4° C. The enzyme-substrate solution comprised 50 μM Gly-Pro-4-methoxy B naphthylamide HCl in 50 mM Tris assay buffer pH 7.3 containing 0.1M sodium chloride, 0.1% (v/v) Triton and 50 μU/mL DPP-IV (Enzyme Systems Products Cat#SPE-01, DPP-IV 5 mU/mL stock). 5 μL/well of compounds of Formula (I) were added, bringing the final compound of Formula (I) concentrations to 3 μM-10 nM per well.
Controls. Enzyme was omitted from four (4) wells, as a reagent blank. 5 μL of 3 mM Diprotin A was added to four wells as a positive quality control, providing a final Diprotin A concentration of 100 μM. To measure total enzyme activity (i.e. a negative control), without the influence of any compounds of Formula (I), 5 μL of distilled water was added to four wells.
The entire assay was incubated overnight (about 14-18 hours) at 37° C.

Where [1] appears, read: read-out: IC50 (concentration of test compound required for 50% inhibition).

T1 sequence (P27487 whole entry, species assumed): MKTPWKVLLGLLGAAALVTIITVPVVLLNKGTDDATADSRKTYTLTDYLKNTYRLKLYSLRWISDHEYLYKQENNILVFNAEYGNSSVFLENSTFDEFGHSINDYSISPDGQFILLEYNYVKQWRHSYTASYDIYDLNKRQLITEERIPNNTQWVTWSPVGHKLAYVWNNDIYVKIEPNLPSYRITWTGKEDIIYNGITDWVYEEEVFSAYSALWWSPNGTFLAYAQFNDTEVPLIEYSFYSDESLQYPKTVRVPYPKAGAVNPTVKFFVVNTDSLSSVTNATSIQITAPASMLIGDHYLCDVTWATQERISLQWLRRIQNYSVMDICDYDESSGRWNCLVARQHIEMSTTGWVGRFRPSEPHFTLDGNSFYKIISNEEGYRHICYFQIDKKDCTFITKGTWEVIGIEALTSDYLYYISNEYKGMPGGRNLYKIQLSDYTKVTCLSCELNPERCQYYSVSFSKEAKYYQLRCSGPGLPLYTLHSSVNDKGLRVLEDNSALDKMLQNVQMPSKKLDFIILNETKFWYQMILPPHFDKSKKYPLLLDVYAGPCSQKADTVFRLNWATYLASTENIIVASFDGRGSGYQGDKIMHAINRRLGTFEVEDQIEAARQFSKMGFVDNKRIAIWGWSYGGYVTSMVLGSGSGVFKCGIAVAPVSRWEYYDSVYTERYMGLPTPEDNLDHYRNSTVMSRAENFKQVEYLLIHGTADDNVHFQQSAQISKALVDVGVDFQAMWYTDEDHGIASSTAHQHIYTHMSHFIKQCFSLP

As to `N[C@H](C(=O)N1CCC(F)(F)C1)[C@H]1CC[C@H](NC(=O)[C@@H]2C[C@@H](O)CN2C(=O)OCc2ccccc2)CC1` [Example 31, 2-{trans-4-[1-(1S)-amino-2-(3,3-difluoro-pyrrolidin-1-yl)-2-oxo-ethyl]-cyclohexylcarbamoyl}-(4R)-4-hydroxy-pyrrolidine-1-carboxylic acid benzyl ester], under setting [1], the pIC50 was ≥ 7.00.
On the same count and under the same terms, the result for `Nc1nccnc1C(=O)N[C@H]1CC[C@H]([C@H](N)C(=O)N2CCC(F)(F)C2)CC1` [Example 32, (S)-3-amino-pyrazine-2-carboxylic acid {trans-4-[1-amino-2-(3,3-difluoro-pyrrolidin-1-yl)-2-oxo-ethyl]-cyclohexyl}-amide] reads ≥ 7.00.
Turning to `CN(CC(=O)N[C@H]1CC[C@H]([C@H](N)C(=O)N2CCC(F)(F)C2)CC1)C(=O)Oc1ccccc1` [Example 33, ({trans-4-[(1S)-1-amino-2-(3,3-difluoro-pyrrolidin-1-yl)-2-oxo-ethyl]-cyclohexylcarbamoyl}-methyl)-methyl-carbamic acid phenyl ester], the pIC50 (IC50 (concentration of test compound required for 50% inhibition)) was ≥ 7.00.
As to `CN(CC(=O)N[C@H]1CC[C@H]([C@H](N)C(=O)N2CCCC2)CC1)C(=O)OCc1ccccc1` [Example 34, (S)-{[trans-4-(1-amino-2-oxo-2-pyrrolidin-1-yl-ethyl)-cyclohexylcarbamoyl]-methyl}-methyl-carbamic acid benzyl ester], the pIC50 under setting [1] was 6.30 to 7.00.
On to `N#C[C@@H]1CCCN1C(=O)[C@@H](N)[C@H]1CC[C@H](NC(=O)c2nccnc2N)CC1` [Example 36, 3-amino-pyrazine-2-carboxylic acid {trans-4-[(1S)-1-amino-2-((2S)-2-cyano-pyrrolidin-1-yl)-2-oxo-ethyl]-cyclohexyl}-amide], for which the pIC50 under setting [1] is ≥ 7.00.
In the case of `CN(CC(=O)N[C@H]1CC[C@H]([C@H](N)C(=O)N2CCC[C@H]2C#N)CC1)C(=O)OCc1ccccc1` [Example 37, ({trans-4-[(1S)-1-amino-2-((2S)-2-cyano-pyrrolidin-1-yl)-2-oxo-ethyl]-cyclohexylcarbamoyl}-methyl)-methyl-carbamic acid benzyl ester], the pIC50 under setting [1] is ≥ 7.00.
For the compound `Nc1ncccc1C(=O)N[C@H]1CC[C@H]([C@H](N)C(=O)N2CCCC2)CC1` [Example 38, (S)-2-amino-N-[trans-4-(1-amino-2-oxo-2-pyrrolidin-1-yl-ethyl)-cyclohexyl]-nicotinamide], the pIC50 under setting [1] was ≥ 7.00.
With `Nc1ncccc1C(=O)N[C@H]1CC[C@H]([C@H](N)C(=O)N2CCSC2)CC1` [Example 39, (S)-2-amino-N-[trans-4-(1-amino-2-oxo-2-thiazolidin-3-yl-ethyl)-cyclohexyl]-nicotinamide], the pIC50 under setting [1] is ≥ 7.00.
Same read-out and setting: the result for `N[C@H](C(=O)N1CCCC1)[C@H]1CC[C@H](N2Cc3sccc3C2=O)CC1` [Example 41, 5-[trans-4-((1S)-1-amino-2-oxo-2-pyrrolidin-1-yl-ethyl)-cyclohexyl]-5,6-dihydro-thieno[2,3-c]pyrrol-4-one] reads ≥ 7.00.
Same read-out and setting: with `N[C@H](C(=O)N1CCCC1)[C@H]1CC[C@H](N2Cc3ncccc3C2=O)CC1` [Example 42, 6-[trans-4-((1S)-1-amino-2-oxo-2-pyrrolidin-1-yl-ethyl)-cyclohexyl]-6,7-dihydro-pyrrolo[3,4-b]pyridin-5-one] the figure was ≥ 7.00; with `N[C@H](C(=O)N1CCSC1)[C@H]1CC[C@H](N2Cc3ncccc3C2=O)CC1` [Example 43, 6-[trans-4-((1S)-1-amino-2-oxo-2-thiazolidin-3-yl-ethyl)-cyclohexyl]-6,7-dihydro-pyrrolo[3,4-b]pyridin-5-one], ≥ 7.00; with `N#C[C@@H]1CCCN1C(=O)[C@@H](N)[C@H]1CC[C@H](N2Cc3ncccc3C2=O)CC1` [Example 44, 1-{(1S)-amino-[trans-4-(5-oxo-5,7-dihydro-pyrrolo[3,4-b]pyridin-6-yl)-cyclohexyl]-acetyl)-(2S)-pyrrolidine-2-carbonitrile], ≥ 7.00.
The same measure, in the same setting: the result for `N[C@H](C(=O)N1CCC(F)(F)C1)[C@H]1CC[C@H](N2Cc3ncccc3C2=O)CC1` [Example 45, 6-{trans-4-[(1S)-1-amino-2-(3,3-difluoro-pyrrolidin-1-yl)-2-oxo-ethyl]-cyclohexyl}-6,7-dihydro-pyrrolo[3,4-b]pyridin-5-one] reads ≥ 7.00.
With `N[C@H](C(=O)N1CCCC1)[C@H]1CC[C@H](N2Cc3nccnc3C2=O)CC1` [Example 46, 6-[trans-4-((1S)-1-amino-2-oxo-2-pyrrolidin-1-yl-ethyl)-cyclohexyl]-6,7-dihydro-pyrrolo[3,4-b]pyrazin-5-one], the pIC50 under setting [1] is ≥ 7.00.
On the same count and under the same terms, the result for `N#C[C@@H]1CCCN1C(=O)[C@@H](N)[C@H]1CC[C@H](NC(=O)c2cc3cccn3cn2)CC1` [Example 47, pyrrolo[1,2-c]pyrimidine-3-carboxylic acid {trans-4-[(1S)-1-Amino-2-((2S)-2-cyano-pyrrolidin-1-yl)-2-oxo-ethyl]-cyclohexyl}-amide] reads ≥ 7.00.
Same read-out and setting: the result for `Cc1nn(C)c(C(=O)N[C@H]2CC[C@H]([C@H](N)C(=O)N3CCCC3)CC2)c1N` [Example 48, (S)-4-amino-2,5-dimethyl-2H-pyrazole-3-carboxylic acid [trans-4-(1-amino-2-oxo-2-pyrrolidin-1-yl-ethyl)-cyclohexyl]-amide] reads ≥ 7.00; that for `Nc1nccnc1C(=O)N[C@H]1CC[C@H]([C@H](N)C(=O)N2CC[S+]([O-])C2)CC1` (stereo partly drawn) [Example 49, 3-amino-pyrazine-2-carboxylic acid {trans-4-[(1S)-1-amino-2-oxo-2-(1-oxo-1×4-thiazolidin-3-yl)-ethyl]-cyclohexyl}-amide], 6.30 to 7.00; that for `N[C@H](C(=O)N1CCCC1)[C@H]1CC[C@H](N2Cc3ccccc3S2(=O)=O)CC1` [Example 50, (2S)-2-amino-2-[trans-4-(1,1-dioxo-1,3-dihydro-1λ^6-benzo[d]isothiazol-2-yl)-cyclohexyl]-1-pyrrolidin-1-yl-ethanone], ≥ 7.00.
Consider `N[C@H](C(=O)N1CCSC1)[C@H]1CC[C@H](N2Cc3ccccc3S2(=O)=O)CC1` [Example 51, (2S)-2-amino-2-[trans-4-(1,1-dioxo-1,3-dihydro-1λ^6-benzo[d]isothiazol-2-yl)-cyclohexyl]-1-thiazolidin-3-yl-ethanone], for which the pIC50 under setting [1] is ≥ 7.00.
The same measure, in the same setting: the result for `N[C@H](C(=O)N1CC[C@@H](F)C1)[C@H]1CC[C@H](NC(=O)c2cccc(O)n2)CC1` [Example 52, 6-hydroxy-pyridine-2-carboxylic acid {trans-4-[(1S)-1-amino-2-((3R)-3-fluoro-pyrrolidin-1-yl)-2-oxo-ethyl]-cyclohexyl}-amide] reads ≥ 7.00.
As for `N[C@H](C(=O)N1CC[C@@H](F)C1)[C@H]1CC[C@H](NC(=O)c2cncc(O)n2)CC1` [Example 53, 6-Hydroxy-pyrazine-2-carboxylic acid {trans-4-[(1S)-1-Amino-2-((3R)-3-fluoro-pyrrolidin-1-yl)-2-oxo-ethyl]-cyclohexyl}-amide], the pIC50 under setting [1] was ≥ 7.00.
The same measure, in the same setting: with `Cn1ccc2cc(C(=O)N[C@H]3CC[C@H]([C@H](N)C(=O)N4CCC[C@H]4C#N)CC3)ncc21` [Example 54, N-(trans-4-{(1S)-1-Amino-2-[(2S)-2-cyanopyrrolidin-1-yl]-2-oxoethyl}cyclohexyl)-1-methyl-1H-pyrrolo[2,3-c]pyridine-5-carboxamide] the figure was ≥ 7.00.
Still for that read-out and setting: the result for `CC1(C)COc2cnc(C(=O)N[C@H]3CC[C@H]([C@H](N)C(=O)N4CCC[C@H]4C#N)CC3)cc21` [Example 55, N-(trans-4-{(1S)-1-amino-2-[(2S)-2-cyanopyrrolidin-1-yl]-2-oxoethyl}cyclohexyl)-3,3-dimethyl-2,3-dihydrofuro[2,3-c]pyridine-5-carboxamide] reads ≥ 7.00; that for `N#C[C@@H]1CCCN1C(=O)[C@@H](N)[C@H]1CC[C@H](NC(=O)c2cn3cccc3cn2)CC1` [Example 56, N-(trans-4-{(S)-1-amino-2-[(2S)-2-cyanopyrrolidin-1-yl]-2-oxoethyl}cyclohexyl)pyrrolo[1,2-a]pyrazine-3-carboxamide], ≥ 7.00.
Same read-out and setting: with `N#C[C@@H]1CCCN1C(=O)[C@@H](N)[C@H]1CC[C@H](NC(=O)c2cc3sccc3cn2)CC1` [Example 57, N-(trans-4-{(1S)-1-amino-2-[(2S)-2-cyanopyrrolidin-1-yl]-2-oxoethyl}cyclohexyl)thieno[3,2-c]pyridine-6-carboxamide] the figure was ≥ 7.00; with `N#C[C@@H]1CCCN1C(=O)[C@@H](N)[C@H]1CC[C@H](NC(=O)c2cc3ccoc3cn2)CC1` [Example 58, N-(trans-4-{(1S)-1-amino-2-[(2S)-2-cyanopyrrolidin-1-yl]-2-oxoethyl}cyclohexyl) furo[2,3-c]pyridine-5-carboxamide], ≥ 7.00.
`Cc1cc(C)n2cnc(C(=O)N[C@H]3CC[C@H]([C@H](N)C(=O)N4CCC[C@H]4C#N)CC3)cc12` [Example 59, N-(trans-4-{(1S)-1-amino-2-[(2S)-2-cyanopyrrolidin-1-yl]-2-oxoethyl}cyclohexyl)-5,7-dimethylpyrrolo[1,2-c]pyrimidine-3-carboxamide]: under setting [1], the pIC50 was ≥ 7.00.
Still for that read-out and setting: with `N#C[C@@H]1CCCN1C(=O)[C@@H](N)[C@H]1CC[C@H](NC(=O)c2cc3ccsc3cn2)CC1` [Example 60, N-(trans-4-{(1S)-1-amino-2-[(2S)-2-cyanopyrrolidin-1-yl]-2-oxoethyl}cyclohexyl)thieno[2,3-c]pyridine-5-carboxamide] the figure was ≥ 7.00.

The values above are taken from patent publication US20050234065A1, “Dipeptidyl peptidase-IV inhibitors” (Pfizer Inc, priority 2004, published 2005).
